Data on 13 compounds can be found in US10952436B2, “Microbiocidal quinoline (thio)carboxamide derivatives” (SYNGENTA PARTICIPATIONS AG, priority 2017, dated 2021).

The test system of series [1] is Glomerella lagenarium (Colletotrichum lagenarium). The experiment in a line: Glomerella lagenarium (Colletotrichum lagenarium)/Liquid Culture (Anthracnose). The settings on record: Colletotrichum orbiculare; 200 ppm; liquid culture, compared to untreated control, 3-4 days after application; read-out: control of Glomerella lagenarium. It is filed as cell-based.
Series [2] deals with Botryotinia fuckeliana (Botrytis cinerea). Description: Botryotinia fuckeliana (Botrytis cinerea)/Liquid Culture (Gray Mould). It is filed as cell-based. The following applies: 200 ppm, liquid culture, compared to untreated control, 3-4 days after application, read-out: control of Botryotinia fuckeliana.
The test system of series [3] is Magnaporthe grisea (Pyricularia oryzae). Description: microbe, parasite or virus in culture. It is filed as cell-based. The following applies: read-out: control of Magnaporthe grisea.
Series [4] deals with Fusarium culmorum. The experiment in a line: microbe, parasite or virus in culture. The settings on record: read-out: control of Fusarium culmorum. It is filed as cell-based.
Series [5] has as its system Monographella nivalis (Microdochium nivale). The experiment in a line: Monographella nivalis (Microdochium nivale)/Liquid Culture (Foot Rot Cereals). Type of series: cell-based. The settings on record: 200 ppm, liquid culture, compared to untreated control, 4-5 days after application, read-out: control of Monographella nivalis.
The subject of series [6] is Sclerotinia sclerotiorum. The experiment in a line: Sclerotinia sclerotiorum/Liquid Culture (Cottony Rot). The settings on record: read-out: control of Sclerotinia sclerotiorum.
Protocol: Mycelia fragments of a newly grown liquid culture of the fungus are directly mixed into nutrient broth (Vogels broth). After placing a (DMSO) solution of test compound into a microtiter plate (96-well format) the nutrient broth containing the fungal material is added. The test plates are incubated at 24° C. and the inhibition of growth is determined photometrically 3-4 days after application.
For series [7], the system named is Fusarium culmorum. The experiment in a line: whole plant or invertebrate. Type of series: in vivo. The following applies: in Triticum aestivum, read-out: control of Fusarium culmorum.

Structures are written as SMILES.

The term melting point denotes the temperature, or range, at which the solid turns liquid. Consider `Cc1nc2c(F)cccc2cc1NC(=O)C(C)(Cc1cccc(F)c1)CC(C)C` (stereo not shown) [Compound E-10, N-(8-fluoro-2-methyl-3-quinolyl)-2-[(3-fluorophenyl)methyl]-2,4-dimethyl-pentanamide], for which the melting point is 93 to 95 °C. Besides, in series [1], the inhibition of growth at 200 ppm is no less than 80%. The inhibition of growth at 200 ppm in series [2] was no less than 80%. In series [3], the inhibition of growth at 200 ppm was no less than 80%. Also, in series [4], the inhibition of growth at 200 ppm is no less than 80%. Also, the inhibition of growth at 200 ppm in series [5] is no less than 80%. Moreover, in series [6], the inhibition of growth at 20 ppm was no less than 80%. The pest or weed control at 200 ppm in series [7] is no less than 80%.

`C=C(C)CC(C)(Cc1cccc(F)c1)C(=O)Nc1cnc2c(F)cccc2c1` (stereo not shown) [Compound E-11, 2-[(3-fluorophenyl)methyl]-N-(8-fluoro-3-quinolyl)-2,4-dimethyl-pent-4-enamide] gave a melting point of 125 to 127 °C. For the same compound, the inhibition of growth at 200 ppm in series [1] is no less than 80%. Besides, the inhibition of growth at 200 ppm in series [2] was no less than 80%. The inhibition of growth at 200 ppm in series [3] was no less than 80%. Also, the inhibition of growth at 200 ppm in series [4] was no less than 80%. For the same compound, the inhibition of growth at 200 ppm in series [5] is no less than 80%. Further, the inhibition of growth at 20 ppm in series [6] is no less than 80%.

For the compound `C=C(C)CC(C)(Cc1cccc(F)c1)C(=O)Nc1cc2cccc(F)c2nc1C` (stereo not shown) [Compound E-12, N-(8-fluoro-2-methyl-3-quinolyl)-2-[(3-fluorophenyl)methyl]-2,4-dimethyl-pent-4-enamide], the melting point fell in the range of 124 to 126 °C. Moreover, the inhibition of growth at 200 ppm in series [1] was no less than 80%. Also, the inhibition of growth at 200 ppm in series [2] was no less than 80%. Moreover, the inhibition of growth at 200 ppm in series [3] is no less than 80%. The inhibition of growth at 200 ppm in series [4] was no less than 80%. Also, the inhibition of growth at 200 ppm in series [5] was no less than 80%. Besides, in series [6], the inhibition of growth at 20 ppm was no less than 80%.

As for `Cc1c(NC(=O)C(C)(Cc2ccccc2)CC(C)C)cnc2c(Cl)cccc12` (stereo not shown) [Compound E-14, 2-benzyl-N-(8-chloro-4-methyl-3-quinolyl)-2,4-dimethyl-pentanamide], the melting point lay within 124 to 126 °C. Further, the inhibition of growth at 200 ppm in series [1] is no less than 80%. The inhibition of growth at 200 ppm in series [2] was no less than 80%. Besides, in series [3], the inhibition of growth at 200 ppm was no less than 80%. For the same compound, the inhibition of growth at 200 ppm in series [4] is no less than 80%. Moreover, the inhibition of growth at 20 ppm in series [6] was no less than 80%.

`Cc1c(NC(=O)C(C)(Cc2ccccc2)CC(F)(F)F)cnc2c(Cl)cccc12` (stereo not shown) [Compound E-15, 2-benzyl-N-(8-chloro-4-methyl-3-quinolyl)-4,4,4-trifluoro-2-methyl-butanamide] yielded a melting point of 73 to 75 °C. The inhibition of growth at 200 ppm in series [1] was no less than 80%. Also, the inhibition of growth at 200 ppm in series [2] is no less than 80%. For the same compound, the inhibition of growth at 200 ppm in series [3] was no less than 80%. The inhibition of growth at 200 ppm in series [4] is no less than 80%. The inhibition of growth at 200 ppm in series [5] was no less than 80%. Besides, the inhibition of growth at 20 ppm in series [6] is no less than 80%.

In turn, `CC(Cc1ccccc1)(CC1(F)CC1)C(=O)Nc1cnc2c(F)cccc2c1` (stereo not shown) [Compound E-25, 2-benzyl-3-(1-fluorocyclopropyl)-N-(8-fluoro-3-quinolyl)-2-methyl-propanamide] came in with a melting point of 162 to 164 °C. Besides, the inhibition of growth at 200 ppm in series [1] is no less than 80%. In series [2], the inhibition of growth at 200 ppm is no less than 80%. For the same compound, the inhibition of growth at 200 ppm in series [3] is no less than 80%. Besides, the inhibition of growth at 200 ppm in series [4] is no less than 80%. Also, the inhibition of growth at 20 ppm in series [6] was no less than 80%. In addition, the pest or weed control at 200 ppm in series [7] was no less than 80%.

`Cc1nc2c(F)cccc2cc1NC(=O)C(C)(Cc1ccccc1)CC(F)(F)F` (stereo not shown) [Compound E-47, 2-benzyl-4,4,4-trifluoro-N-(8-fluoro-2-methyl-3-quinolyl)-2-methyl-butanamide] displayed a melting point of 130 to 132 °C. In series [1], the inhibition of growth at 200 ppm is no less than 80%. The inhibition of growth at 200 ppm in series [2] is no less than 80%. Moreover, the inhibition of growth at 200 ppm in series [3] was no less than 80%. Also, the inhibition of growth at 200 ppm in series [4] is no less than 80%. In addition, the inhibition of growth at 20 ppm in series [6] was no less than 80%. Further, the pest or weed control at 200 ppm in series [7] was no less than 80%.

`CC(Cc1ccccc1)(CC(F)(F)F)C(=O)Nc1cnc2c(Cl)cccc2c1` (stereo not shown) [Compound E-51, 2-benzyl-N-(8-chloro-3-quinolyl)-4,4,4-trifluoro-2-methyl-butanamide] displayed a melting point of 104 to 106 °C. In series [1], the inhibition of growth at 200 ppm was no less than 80%. Besides, the inhibition of growth at 200 ppm in series [2] was no less than 80%. Further, the inhibition of growth at 200 ppm in series [3] is no less than 80%. Also, the inhibition of growth at 200 ppm in series [4] was no less than 80%. Further, the inhibition of growth at 200 ppm in series [5] was no less than 80%. Further, the inhibition of growth at 20 ppm in series [6] was no less than 80%. The pest or weed control at 200 ppm in series [7] is no less than 80%.

In turn, `C=C(Cl)CC(C)(Cc1ccccc1)C(=O)Nc1cnc2c(F)cccc2c1` (stereo not shown) [Compound E-53, 2-benzyl-4-chloro-N-(8-fluoro-3-quinolyl)-2-methyl-pent-4-enamide] displayed a melting point of 148 to 150 °C. The inhibition of growth at 200 ppm in series [1] is no less than 80%. Also, in series [2], the inhibition of growth at 200 ppm is no less than 80%. For the same compound, the inhibition of growth at 200 ppm in series [3] is no less than 80%. Moreover, the inhibition of growth at 200 ppm in series [4] was no less than 80%. Besides, the inhibition of growth at 200 ppm in series [5] is no less than 80%. In addition, in series [6], the inhibition of growth at 20 ppm was no less than 80%. Further, the pest or weed control at 200 ppm in series [7] was no less than 80%.

As for `Cc1nc2c(F)cccc2cc1NC(=O)[C@](C)(Cc1ccccc1)CC(C)C` [Compound F-7, (2S)-2-benzyl-N-(8-fluoro-2-methyl-3-quinolyl)-2,4-dimethyl-pentanamide], the inhibition of growth at 200 ppm in series [1], in series [2], in series [3], in series [4] and in series [5] was no less than 80% in each case. Further, the inhibition of growth at 20 ppm in series [6] was no less than 80%. Moreover, in series [7], the pest or weed control at 200 ppm was no less than 80%.

As to `Cc1nc2c(F)cccc2cc1NC(=O)[C@@](C)(Cc1ccccc1)CC(C)C` [Compound F-8, (2R)-2-benzyl-N-(8-fluoro-2-methyl-3-quinolyl)-2,4-dimethyl-pentanamide], the inhibition of growth at 200 ppm in series [1], in series [2], in series [3], in series [4] and in series [5] was no less than 80% throughout. Besides, the inhibition of growth at 20 ppm in series [6] is no less than 80%. The pest or weed control at 200 ppm in series [7] is no less than 80%.

In turn, `CC1(C[C@@](C)(Cc2ccccc2)C(=O)Nc2cnc3c(F)cccc3c2)CC1` [Compound F-10, (2S)-2-benzyl-N-(8-fluoro-3-quinolyl)-2-methyl-3-(1-methylcyclopropyl) propanamide] returned a melting point of 58 to 60 °C. In addition, the inhibition of growth at 200 ppm in series [1] was no less than 80%. For the same compound, the inhibition of growth at 200 ppm in series [2] is no less than 80%. Moreover, in series [3], the inhibition of growth at 200 ppm is no less than 80%. In series [4], the inhibition of growth at 200 ppm is no less than 80%. In addition, in series [5], the inhibition of growth at 200 ppm is no less than 80%. Further, the inhibition of growth at 20 ppm in series [6] was no less than 80%.

Compound `Cc1c(NC(=O)[C@](C)(Cc2ccccc2)CC(F)(F)F)cnc2c(F)cccc12` [Compound F-13, (2R)-2-benzyl-4,4,4-trifluoro-N-(8-fluoro-4-methyl-3-quinolyl)-2-methyl-butanamide] showed a melting point of 71 to 73 °C. Besides, the inhibition of growth at 200 ppm in series [1] is no less than 80%. In series [2], the inhibition of growth at 200 ppm is no less than 80%. In series [3], the inhibition of growth at 200 ppm is no less than 80%. In addition, the inhibition of growth at 200 ppm in series [4] was no less than 80%. Also, the inhibition of growth at 200 ppm in series [5] is no less than 80%. Also, the inhibition of growth at 20 ppm in series [6] is no less than 80%. The pest or weed control at 200 ppm in series [7] is no less than 80%.
